Source: patent US12377070B2, “Substituted sulfoximine derivatives” (CADILA HEALTHCARE LIMITED, priority 2019, dated 2025)
Where a name gives a salt, the structure may show the parent alone.

What follows are molecules tested on IL-1β (assay: In vitro IL-1β inhibition in PMA-differentiated, LPS-primed, ATP-stimulated THP1 monocytes). Details: Homo sapiens, THP-1, THP1 cells differentiated with PMA 100 ng/mL; primed with 500 ng/mL LPS 4 hrs; compound 30 min; 5 mM ATP 1 hr; IL-1b in supernatant; read-out: IC50 (in vitro IL-1β inhibitory activity).
Assay type: cell-based
Procedure: THP1 monocytes were differentiated with PMA (100 ng/mL) and incubated at 37° C. for 20 hours in presence of 5% CO2. 2×10^5 differentiated cells were plated per well of 96 well tissue culture plates. The cells were primed using 500 ng/mL Lipopolysaccharide and incubating for 4 hrs under the same condition. The cells were then treated with various concentrations of the compounds for 30 min followed by treatment with 5 mM ATP for 1 hr. The supernatants were collected and analysed by IL-1b (Mabtech Cat #3415-1H-20) or TNF-a (Mabtech; Cat #3510-1H-20) detection kit. The data were analyzed using GraphPad Prism V7.0. Dose Response Curve (DRC) was constructed to determine the IC50 value by fitting percentage […] data to the GraphPad Prism using nonlinear regression analysis.
In the case of `CN1CCC[C@@H]1/C=C/S(=O)(=NC#N)NC(=O)Nc1c2c(cc3c1CCC3)CCC2` (stereo partly drawn) [Example 11, (E)-N′-cyano-N-((1,2,3,5,6,7-hexahydro-s-indacen-4-yl)carbamoyl)-2-((R)-1-methylpyrrolidin-2-yl)ethene-1-sulfonimidamide], the IC50 is reported as 2.3 µM. For `C[C@@]1(/C=C/S(=O)(=NC#N)NC(=O)Nc2c3c(cc4c2CCC4)CCC3)CCCN1C1CCCC1` (stereo partly drawn) [Example 18, (E)-N′-cyano-2-((S)-1-cyclopentyl-2-methylpyrrolidin-2-yl)-N-((1,2,3,5,6,7-hexahydro-s-indacen-4-yl)carbamoyl)ethene-1-sulfonimidamide], the IC50 was 18 µM. For `CC(C)(C)OC(=O)N1CCCC1/C=C/S(=O)(=NC#N)NC(=O)Nc1c2c(cc3c1CCC3)CCC2` [Example 34, tert-butyl (2R)-2-((E)-2-(N′-cyano-N-((1,2,3,5,6,7-hexahydro-s-indacen-4-yl)carbamoyl)sulfamidimidoyl)vinyl)pyrrolidine-1-carboxylate], the IC50 was 19 µM. Molecule `CN1CCC[C@@]1(C)/C=C/S(=O)(=NC#N)NC(=O)Nc1c2c(cc3c1CCC3)CCC2` (stereo partly drawn) [Example 7, (E)-N′-cyano-2-((S)-1,2-dimethylpyrrolidin-2-yl)-N-((1,2,3,5,6,7-hexahydro-s-indacen-4-yl)carbamoyl)ethene-1-sulfonimidamide] has an IC50 of 1.5 µM. `C[C@@]1(/C=C/S(=O)(=NC#N)NC(=O)Nc2c3c(cc4c2CCC4)CCC3)CCCN1CC1CC1` (stereo partly drawn) [Example 21, (E)-N′-cyano-2-((S)-1-(cyclopropylmethyl)-2-methylpyrrolidin-2-yl)-N-((1,2,3,5,6,7-hexahydro-s-indacen-4-yl)carbamoyl)ethene-1-sulfonimidamide] gave an IC50 of 4.6 µM. For `N#CN=S(=O)(/C=C/[C@H]1CCCN1S(=O)(=O)C1CCCCC1)NC(=O)Nc1c2c(cc3c1CCC3)CCC2` (stereo partly drawn) [Example 8, (E)-N′-cyano-2-((R)-1-(cyclohexylsulfonyl)pyrrolidin-2-yl)-N-((1,2,3,5,6,7-hexahydro-s-indacen-4-yl)carbamoyl)ethene-1-sulfonimidamide], the IC50 was 12 µM. In the case of `CC(C)CN1CCC[C@@]1(C)/C=C/S(=O)(=NC#N)NC(=O)Nc1c2c(cc3c1CCC3)CCC2` (stereo partly drawn) [Example 24, (E)-N′-cyano-N-((1,2,3,5,6,7-hexahydro-s-indacen-4-yl)carbamoyl)-2-((S)-1-isobutyl-2-methylpyrrolidin-2-yl)ethene-1-sulfonimidamide], the IC50 is reported as 15 µM. `C[C@@]1(/C=C/S(=O)(=NC#N)NC(=O)Nc2c3c(cc4c2CCC4)CCC3)CCCN1C1CCC1` (stereo partly drawn) [Example 19, (E)-N′-cyano-2-((S)-1-cyclobutyl-2-methylpyrrolidin-2-yl)-N-((1,2,3,5,6,7-hexahydro-s-indacen-4-yl)carbamoyl)ethene-1-sulfonimidamide] showed an IC50 of 4.6 µM. In the case of `CCN1CCC[C@@]1(C)/C=C/S(=O)(=NC#N)NC(=O)Nc1c2c(cc3c1CCC3)CCC2` (stereo partly drawn) [Example 26, (E)-N′-cyano-2-((S)-1-ethyl-2-methylpyrrolidin-2-yl)-N-((1,2,3,5,6,7-hexahydro-s-indacen-4-yl)carbamoyl)ethene-1-sulfonimidamide], the IC50 is reported as 19 µM. `C[C@@]1(/C=C/S(=O)(=NC#N)NC(=O)Nc2c3c(cc4c2CCC4)CCC3)CCCN1Cc1nccs1` (stereo partly drawn) [Example 29, (E)-N′-cyano-N-((1,2,3,5,6,7-hexahydro-s-indacen-4-yl)carbamoyl)-2-((S)-2-methyl-1-(thiazol-2-ylmethyl)pyrrolidin-2-yl)ethene-1-sulfonimidamide] was tested, and the IC50 was 15 µM. Work on `CC(C)(C)OC(=O)N1CCC[C@]1(C)/C=C/S(=O)(=NC#N)NC(=O)Nc1c2c(cc3c1CCC3)CCC2` (stereo partly drawn) [Example 13, tert-butyl (2R)-2-((E)-2-(N′-cyano-N-((1,2,3,5,6,7-hexahydro-s-indacen-4-yl)carbamoyl)sulfamidimidoyl)vinyl)-2-methylpyrrolidine-1-carboxylate] yielded an IC50 of 4 µM. `N#CN=S(=O)(/C=C/[C@H]1CCCN1S(=O)(=O)c1ccccc1C#N)NC(=O)Nc1c2c(cc3c1CCC3)CCC2` (stereo partly shown) [Example 9] was tested, and the IC50 was 11 µM. Molecule `CC(=O)N1CCC[C@@]1(C)/C=C/S(=O)(=NC#N)NC(=O)Nc1c2c(cc3c1CCC3)CCC2` (stereo partly drawn) [Example 25, (E)-2-((S)-1-acetyl-2-methylpyrrolidin-2-yl)-N′-cyano-N-((1,2,3,5,6,7-hexahydro-s-indacen-4-yl)carbamoyl)ethene-1-sulfonimidamide] has an IC50 of 19 µM. Molecule `C[C@]1(/C=C/S(=O)(=NC#N)NC(=O)Nc2c3c(cc4c2CCC4)CCC3)CCCN1` (stereo partly drawn) [Example 14, (E)-N′-cyano-N-((1,2,3,5,6,7-hexahydro-s-indacen-4-yl)carbamoyl)-2-((R)-2-methylpyrrolidin-2-yl)ethene-1-sulfonimidamide hydrochloride] has an IC50 of 9 µM. Work on `CC(C)N1CCC[C@@]1(C)/C=C/S(=O)(=NC#N)NC(=O)Nc1c2c(cc3c1CCC3)CCC2` (stereo partly drawn) [Example 17, (E)-N′-cyano-N-((1,2,3,5,6,7-hexahydro-s-indacen-4-yl)carbamoyl)-2-((S)-1-isopropyl-2-methylpyrrolidin-2-yl)ethene-1-sulfonimidamide] yielded an IC50 of 11 µM. With `C[C@@]1(/C=C/S(=O)(=NC#N)NC(=O)Nc2c3c(cc4c2CCC4)CCC3)CCCN1C(N)=O` (stereo partly drawn) [Example 31, (2S)-2-((E)-2-(N′-cyano-N-((1,2,3,5,6,7-hexahydro-s-indacen-4-yl)carbamoyl)sulfamidimidoyl)vinyl)-2-methylpyrrolidine-1-carboxamide] the IC50 was 9.2 µM. `CN1CCC[C@]1(C)/C=C/S(=O)(=NC#N)NC(=O)Nc1c2c(cc3c1CCC3)CCC2` (stereo partly drawn) [Example 15, (E)-N′-cyano-2-((R)-1,2-dimethylpyrrolidin-2-yl)-N-((1,2,3,5,6,7-hexahydro-s-indacen-4-yl)carbamoyl)ethene-1-sulfonimidamide] showed an IC50 of 2.1 µM. Work on `CC(C)(C)OC(=O)N1CCC[C@@]1(C)/C=C/S(=O)(=NC#N)NC(=O)Nc1c2c(cc3c1CCC3)CCC2` (stereo partly drawn) [Example 3, tert-butyl (2S)-2-((E)-2-(N′-cyano-N-((1,2,3,5,6,7-hexahydro-s-indacen-4-yl)carbamoyl)sulfamidimidoyl)vinyl)-2-methylpyrrolidine-1-carboxylate] yielded an IC50 of 19 µM. Work on `N#CN=S(=O)(/C=C/[C@H]1CCCN1)NC(=O)Nc1c2c(cc3c1CCC3)CCC2` (stereo partly drawn) [Example 10, (E)-N′-cyano-N-((1,2,3,5,6,7-hexahydro-s-indacen-4-yl)carbamoyl)-2-((R)-pyrrolidin-2-yl)ethene-1-sulfonimidamide hydrochloride] yielded an IC50 of 6.4 µM.

Same assay, conditions: THP1 cells differentiated with PMA 100 ng/mL; primed with 500 ng/mL LPS 4 hrs; compound 30 min; 5 mM ATP 1 hr; IL-1b in supernatant; 2,2,2-trifluoroacetate; read-out: IC50 (in vitro IL-1β inhibitory activity)
Work on `C[C@@]1(/C=C/S(=O)(=NC#N)NC(=O)Nc2c3c(cc4c2CCC4)CCC3)CCCN1` (stereo partly drawn) [Example 22, (E)-N′-cyano-N-((1,2,3,5,6,7-hexahydro-s-indacen-4-yl)carbamoyl)-2-((S)-2-methylpyrrolidin-2-yl)ethene-1-sulfonimidamide 2,2,2-trifluoroacetate] yielded an IC50 of 8.9 µM.

Same assay, conditions: THP1 cells differentiated with PMA 100 ng/mL; primed with 500 ng/mL LPS 4 hrs; compound 30 min; 5 mM ATP 1 hr; IL-1b in supernatant; hydrochloride; read-out: IC50 (in vitro IL-1β inhibitory activity)
`C[C@@]1(/C=C/S(=O)(=NC#N)NC(=O)Nc2c3c(cc4c2CCC4)CCC3)CCCN1` (stereo partly drawn) [Example 4, (E)-N′-cyano-N-((1,2,3,5,6,7-hexahydro-s-indacen-4-yl)carbamoyl)-2-((S)-2-methylpyrrolidin-2-yl)ethene-1-sulfonimidamide hydrochloride] showed an IC50 of 20 µM.

Same assay, conditions: THP1 cells differentiated with PMA 100 ng/mL; primed with 500 ng/mL LPS 4 hrs; compound 30 min; 5 mM ATP 1 hr; IL-1b in supernatant; read-out: IC50 (in vitro IL-1β inhibitory activity)
Work on `C[C@@]1(/C=C/S(=O)(=NC#N)NC(=O)Nc2c3c(cc4c2CCC4)CCC3)CCCN1` (stereo partly drawn) [Example 20, (E)-N′-cyano-N-((1,2,3,5,6,7-hexahydro-s-indacen-4-yl)carbamoyl)-2-((S)-2-methylpyrrolidin-2-yl)ethene-1-sulfonimidamide] yielded an IC50 of 3.2 µM.
